{
  "source": "ChEMBL document CHEMBL5247625",
  "about": "“Discovery and characterization of novel potent BCR-ABL degraders by conjugating allosteric inhibitor” (Eur J Med Chem, 2022)",
  "molecular_target": "Crk-like protein (Homo sapiens) (UniProt P46109)",
  "sequence (P46109 whole entry)": "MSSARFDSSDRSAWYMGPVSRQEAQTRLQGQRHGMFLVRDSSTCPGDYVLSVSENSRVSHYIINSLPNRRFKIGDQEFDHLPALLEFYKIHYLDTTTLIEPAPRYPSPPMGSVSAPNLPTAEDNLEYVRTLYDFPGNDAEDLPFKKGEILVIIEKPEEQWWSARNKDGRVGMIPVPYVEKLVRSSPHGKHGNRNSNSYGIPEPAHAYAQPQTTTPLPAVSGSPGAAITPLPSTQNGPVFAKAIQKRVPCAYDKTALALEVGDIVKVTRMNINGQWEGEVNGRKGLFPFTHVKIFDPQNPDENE",
  "test": "Inhibition of CRKL phosphorylation at Tyr207 residue in human K562 cells at 100 nM incubated for 6 hrs followed by compound washout measured upto 96 hrs by Western blotting analysis",
  "type": "cell-based",
  "note": "Calls of active or inactive are those of the source. The rule behind the calls is not given here.",
  "data": [
    {"smiles": "O=C1CCC(N2Cc3c(SCCCCCCN4CCN(C5CCN(c6ncc(C(=O)Nc7ccc(OC(F)(F)Cl)cc7)cc6-c6ccn[nH]6)CC5)CC4)cccc3C2=O)C(=O)N1", "note": "(stereo unspecified)", "values": [
      {"measurement": "inhibition", "result": "inactive"}
    ]}
  ]
}
